Reference: US5688767A, “Treatment of endotoxin-associated disorders with cationic peptides” (priority 1996, dated 1997)
Values after ≈ are worked out from the molar mass of the structure shown.

Key:
P. aeruginosa = assay: microbe, parasite or virus in culture; type: cell-based, Pseudomonas aeruginosa
Protocol: (§1) The minimum inhibitory concentrations of (MIC) of CEME, CEMA and melittin were determined for a number of different bacteria (Table 2). Briefly, cells were grown overnight at 37° C. in LB-S (Luria broth without any salt supplement) and diluted one in 10,000 in the same medium to give concentrations of about 10^4 to 10^5 CFU/ml. The broth dilutions were set up in a 96 well microtiter plate by putting 200 μl of LB-S containing the initial concentration of antibiotic or compound in column 1 and 100 μl of the same medium in columns 2-12. The compounds were diluted by taking 100 μl of broth from column 1 and mixing it with column 2, resulting in a one in two dilution. This was continued to column 10. Finally, 10 μl of bacteria were pipetted into columns 1-11, and the plates incubated overnight at 37° C. The next day the plates were scored for growth in the wells, and the MIC determined.
(§2) Bacteria included the Bort strain of E. coli (Bortolussi, et al., Inf. Immun., 25:293, 1979) that was originally derived from a case of neonatal meningitis, and which is therefore considered a relevant pathogenic strain to study, and the 0111:B4 strain of E. coli (kindly provided by Dr. D. Morrison) which is a standard source of endotoxin. (Kelly, et al., Inf. Immun., 59:4491, 1991). In addition, P. aeruginosa PA01 strain H103, P. aeruginosa M2, P. aeruginosa K799, Eschericha coli UB 1005, Enterobacter cloacae 218S, Salmonella typhimurium MS7953s, Klebsiella pneumoniae ATCC 13883, Xanthomonas maltophilia ATCC 13637, and Acinetobacter calcoacetious 8193 were employed. LPS was obtained from E. coli Bort by the technique of Westphal and Jann, (Westphal, et al., Acad. Press, Inc. NY., 5:83) and from P. aeruginosa H103 by the method of Darveau and Hancock, (Darveau, et al., J. Bacteriol, 155:831, […]). E. coli 0111:B4 LPS was purchased from Sigma.

P. AERUGINOSA H309 = assay: microbe, parasite or virus in culture; type: cell-based, Pseudomonas aeruginosa
Protocol: as §1, with “Briefly,” for “The minimum inhibitory concentrations of (MIC) of CEME, CEMA and melittin were determined for a number of different bacteria (Table 2). Briefly,”

[1] = test system: P. aeruginosa H309 or E. cloacae 218R1; type: cell-based, Pseudomonas aeruginosa; Enterobacter cloacae; conditions: 10 μM NPN
Text: The second assay determined membrane permeability by the ability of 1-N-phenylnaphthylamine(NPN), a small fluorescent probe, to insert itself into the membrane. Normally, very little NPN can penetrate the outer membrane, but in the presence of a membrane permeabilizer it can insert into the hydrophobic membrane resulting in an increase in fluorescence (FIGS. 7 and 8). This N-phenylnaphthylamine uptake assay was previously described by Loh, et al., Antimicrobial Agents and Chemo., 26:546, 1984. Cells were prepared exactly the same as for the lysozyme lysis assay. 1-N-phenylnaphthylamine(NPN) was dissolved in acetone at a concentration of 500 μM. NPN fluorescence was measured in a Perkin-Elmer 650-10S fluorescent spectrophotometer using excitation and emission wavelengths set to 350 nm and 420 nm respectively, with slit widths of 5 nm. The assay was standardized by adding 20 μl of NPN (final concentration of 10 μM) and 10 μl of 0.64 mg/ml of polymyxin B (final concentration of 6.4 μg/ml) into 1 ml of cells, and adjusting the resulting fluorescence to read 90% deflection (90 arbitrary units). Various compounds were tested by adding 10 μl of different concentrations to a cuvette containing 1 ml of cells and 10 μM NPN. Permeabilizing activity was designated as the total fluorescence minus the fluorescence due to NPN alone. Following the fluorescence measurement, the OD600 of the cells was taken to ensure no significant cell lysis had occurred.

E. cloacae = assay: microbe, parasite or virus in culture; type: cell-based, Enterobacter cloacae
Protocol: as §1, §2

P. aeruginosa H103 LPS = assay: Dansyl polymyxin (DPx) displacement from purified LPS; type: binding, Pseudomonas aeruginosa; conditions: 2.5 μM DPx, 3 μg/ml LPS, 5 mM HEPES pH 7.2, average of at least three trials; for IC50: read-out: I50, Value in μM
Protocol: In this assay, DPx was incubated with LPS to saturate the binding sites and then, while polycationic compounds are titrated into the reaction, displacement of the DPx was monitored by the decrease in fluorescence (FIG. 9). P. aeruginosa LPS was isolated as previously described (Darveau, et al., J of Bacteriology, 155:831, 1983) Dansyl polymyxin was synthesized as described by Schindler, et al., B. Antimicrobial Agents and Chemo, 8:95, 1975.
The method of Moore, et al., (Antimicrobial Agents and Chemo., 29:496, 1987), was used to test how much DPx was needed to saturate the binding sties on LPS. Briefly, 5 μl samples of 100 μM DPx were titrated sequentially into 1 ml of 3 μg/ml of LPS until a maximum fluorescence was reached. The fluorescence was measured in a Perkin-Elmer 650-10S fluorescence spectrophotometer with an excitation wavelength of 340 nm and an emission wavelength of 485 nm using slit widths of 5 nm. […] For the binding inhibition assays (Moore, et al., Antimicrobial Agents and Chemo., 29:496, 1987), 2.5 μM DPx was added to 3 μg/ml of H103 LPS in 5 mM HEPES pH 7.2. The test compounds were added 5 μl at a time and the decrease in fluorescence due to displacement of the DPx from the LPS was recorded.
When the data was plotted as a double reciprocal plot (FIG. 10), the X-intercept provided a value that is equal to -1/I50.

E. coli = assay: microbe, parasite or virus in culture; type: cell-based, Escherichia coli
Protocol: as §1, §2

[2] = strain H188, Antibiotic sensitive
[3] = strain 218S, Parent of 218R1 (Table 2)
[4] = strain UB1005, Parent of DC2 (Table 2)

Compound | MIC (P. aeruginosa; strain H187, Parent of H188) | MIC (P. aeruginosa; [2]) | MIC (P. aeruginosa; strain H309, Wildtype) | MIC (P. AERUGINOSA H309; +5 mM Mg^++) | MIC (P. AERUGINOSA H309; +80 mM Na^+) | MIC (P. AERUGINOSA H309; No addition) | activity in opening up the membrane to NPN [1] | MIC (E. cloacae; [3]) | I50, Value in μg/ml (P. aeruginosa H103 LPS) | IC50 (P. aeruginosa H103 LPS) | MIC (E. coli; [4]) | further results
CC[C@H](C)[C@H](NC(=O)CNC(=O)[C@@H](NC(=O)[C@H](CCCCN)NC(=O)[C@H](CCCCN)NC(=O)[C@H](Cc1ccccc1)NC(=O)[C@H](CC(C)C)NC(=O)[C@H](CCCCN)NC(=O)[C@H](Cc1c[nH]c2ccccc12)NC(=O)[C@@H](N)CCCCN)[C@@H](C)CC)C(=O)NCC(=O)N[C@@H](C)C(=O)N[C@H](C(=O)N[C@@H](CC(C)C)C(=O)N[C@@H](CCCCN)C(=O)N[C@H](C(=O)N[C@@H](CC(C)C)C(=O)N[C@H](C(=O)N[C@H](C(=O)NCC(=O)N[C@@H](CC(C)C)C(=O)N1CCC[C@H]1C(=O)N[C@@H](C)C(=O)N[C@@H](CC(C)C)C(=O)N[C@@H](CCCCN)C(=O)N[C@@H](CC(C)C)C(=O)N[C@H](C(=O)N[C@@H](CCCCN)C(=O)O)[C@@H](C)O)[C@@H](C)O)[C@@H](C)O)C(C)C)C(C)C [CEMA] | 2.8 µg/mL (≈ 0.913 µM) | 1.4 µg/mL (≈ 0.457 µM) | 2.8 µg/mL (≈ 0.913 µM) | 22.4 µg/mL (≈ 7.31 µM) | 5.6 µg/mL (≈ 1.83 µM) | 2.8 µg/mL (≈ 0.913 µM) | equally active | 2.8 µg/mL (≈ 0.913 µM) | 4.12 ± 0.36 µg/mL | 1.32 ± 0.117 µM | 2.8 µg/mL (≈ 0.913 µM) | MIC (P. aeruginosa; Pseudomonas aeruginosa H103): 8 µg/mL (≈ 2.61 µM); MIC (P. aeruginosa; Pseudomonas aeruginosa K799): 2.8 µg/mL (≈ 0.913 µM); MIC (E. cloacae; Enterobacter cloacae 218S (Table 9)): 4 µg/mL (≈ 1.3 µM); MIC (E. cloacae; strain 218R1, β-lactam resistant): 1.4 µg/mL (≈ 0.457 µM); MIC (E. coli; Escherichia coli 0111:B4): 4 µg/mL (≈ 1.3 µM); MIC (E. coli; Escherichia coli Bort): 8 µg/mL (≈ 2.61 µM); MIC (E. coli; Escherichia coli UB1005 (Table 9)): 4 µg/mL (≈ 1.3 µM); MIC (E. coli; strain DC2, Polymyxin sensitive): 0.7 µg/mL (≈ 0.228 µM); MIC (E. coli; strain SC9251, Parent of SC9252): 1.4 µg/mL (≈ 0.457 µM); MIC (E. coli; strain SC9252, Polymyxin resistant): 1.4 µg/mL (≈ 0.457 µM)
polymyxin B | 0.5 µg/mL | 0.06 µg/mL | 0.5 µg/mL | 1 µg/mL | 0.5 µg/mL | 0.5 µg/mL | equally active | 0.5 µg/mL | 2.97 ± 0.07 µg/mL | 1.51 ± 0.04 µM | 0.5 µg/mL | 
